Results on 30 compounds are retold here after patent US20220144838A1, “Compounds as Inhibitors of Macrophage Migration Inhibitory Factor” (NANJING IMMUNOPHAGE BIOTECH CO., LTD., priority 2019, published 2022).

One assay has as its target T1, MIF (Homo sapiens, UniProt P14174).
T1 sequence (P14174 2-115 limits assumed): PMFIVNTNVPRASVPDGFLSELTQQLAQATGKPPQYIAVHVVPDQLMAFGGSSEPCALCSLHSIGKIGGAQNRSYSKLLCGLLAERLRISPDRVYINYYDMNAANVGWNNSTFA
Description: MIF tautomerase assay using pHPP as substrate. The class given is biochemical. The note with it: FIGS. 1-5; mean of multiple test results; read-out: pIC50 MIF tautomerase activity (converted). How it is done: Tautomerase Assay Using pHPP as Substrate
This assay measured MIF's tautomerase activity in a cell-free system and was based on the determination of initial rates of the MIF-catalyzed conversion of the ketonic into the enolic tautomer of pHPP. This was achieved by spectrophotometric quantification of the complex between borate and the product of the reaction (enolic pHPP). The substrate was prepared by conversion of the enolic pHPP into its ketonic form. To achieve this, 0.5 M pHPP in methanol was diluted 10-fold with 50 mM sodium acetate buffer at pH 6.0, and then the suspension was shaken for 24 h at room temperature in darkness, and finally stored at 4° C. for not more than 1 week, with 5 min sonication being recommended before use.
Assays were performed in small-volume clear-bottom black 96 or 384-well polystyrene plates (Greiner Bio-One). First, 2 μL of the enzyme solution containing 6 nM of MIF in DPBS, 0.025% w/v BSA, and 300 μM CHAPS was dispensed onto sample and negative control wells using Multidrop Combi with metallic tip cassettes (Thermo Fisher Scientific) previously treated with Sigmacote. Then, 2 μL of the same buffer without MIF was dispensed onto positive control wells. The reaction was started by addition of the following to all wells: 2 μL of substrate solution containing 3 mM ketonic pHPP in 200 mM boric acid, 25 mM sodium phosphate, 0.025% w/v BSA, and 300 μM CHAPS at pH 6.0. In order to remove bubbles, the plate was centrifuged in an Allegra 25R centrifuge (Beckman Coulter, Inc., Brea, Calif.) at 1000 rpm for 2 min at room temperature. Then, the plate was read in an EnVision. Final concentrations of enzyme and substrate were 3 nM and 1.5 mM, respectively. Initial rates were calculated for each well as the slope of the absorbance progress curve.
All exemplified compounds (Examples 1-230) were tested in the MIF tautomerase assay or a similar assay described above. The data mentioned below represents a mean pIC50 value of multiple test results. It is understood that the data illustrated below may have reasonable variation depending on the specific conditions and procedures used by the person conducting the testing.
For `CC(C)(C)OC(=O)Cn1cnc2c(-n3nnc4c(C(=O)O)cccc43)nc(N3CCN(c4ccc(O)cc4)CC3)nc21` [Example 100, 1-(9-(2-(tert-butoxy)-2-oxoethyl)-2-(4-(4-hydroxyphenyl)piperazin-1-yl)-9H-purin-6-yl)-1H-benzo[d][1,2,3]triazole-4-carboxylic acid], the IC50 is not above 0.1 µM.

Still in this assay, the particulars now being: inhibition of the MIF enzyme in vitro; mean of multiple test results; read-out: Tautomerase Inhibition pIC50 (converted).
In the case of `CN(CC(=O)O)c1nc(N2CCC(O)(c3ccc(O)cc3)CC2)nc2c1ncn2-c1ccncc1` [Example 205, N-(2-(4-hydroxy-4-(4-hydroxyphenyl)piperidin-1-yl)-9-(pyridin-4-yl)-9H-purin-6-yl)-N-methylglycine], the IC50 was 0.1 to 0.977 µM.

For `O=C(O)CCCCn1cnc2c(-n3ncc4ccccc43)nc(N3CCC(O)(c4ccc(O)cc4)CC3)nc21` [Example 217, 5-(2-(4-hydroxy-4-(4-hydroxyphenyl)piperidin-1-yl)-6-(1H-indazol-1-yl)-9H-purin-9-yl)pentanoic acid], the IC50 is 0.01 to 0.0977 µM.

Regarding `O=C(O)CCCCn1cnc2c(-n3ncc4ccccc43)nc(N3CCN(c4ccc(O)cn4)CC3)nc21` [Example 149, 5-(2-(4-(5-hydroxypyridin-2-yl)piperazin-1-yl)-6-(1H-indazol-1-yl)-9H-purin-9-yl)pentanoic acid], the IC50 was 0.01 to 0.0977 µM.

For `Cc1nc(N2CCN(c3ccc(O)cc3)CC2)nc2c1ncn2-c1cccc(Cl)c1` [Example 65, 4-(4-(9-(3-chlorophenyl)-6-methyl-9H-purin-2-yl)piperazin-1-yl)phenol], the IC50 is 1 to 9.77 µM.

As to `CCS(=O)(=O)NC(=O)Cn1cnc2c(-n3ncc4ccccc43)nc(N3CCN(c4ccc(O)cc4)CC3)nc21` [Example 53, N-(ethylsulfonyl)-2-(2-(4-(4-hydroxyphenyl)piperazin-1-yl)-6-(1H-indazol-1-yl)-9H-purin-9-yl)acetamide], the IC50 is 0.01 to 0.0977 µM.

Take `CN(C)Cc1cccc2c1cnn2-c1nc(N2CCN(c3ccc(O)cc3)CC2)nc2c1ncn2CC(=O)O` [Example 143, 2-(6-(4-((dimethylamino)methyl)-1H-indazol-1-yl)-2-(4-(4-hydroxyphenyl)piperazin-1-yl)-9H-purin-9-yl)acetic acid]: the IC50 is 0.1 to 0.977 µM.

Consider `O=C(O)C1CCCN1c1nc(N2CCN(c3ccc(O)cc3)CC2)nc2c1ncn2-c1ccncc1` (stereo not shown) [Example 167, (2-(4-(4-hydroxyphenyl)piperazin-1-yl)-9-(pyridin-4-yl)-9H-purin-6-yl)proline], for which the IC50 is 0.01 to 0.0977 µM.

`O=C(O)CNC(=O)Cn1cnc2c(-n3ncc4ccccc43)nc(N3CCN(c4ccc(O)cc4)CC3)nc21` [Example 132, 2-(2-(2-(4-(4-hydroxyphenyl)piperazin-1-yl)-6-(1H-indazol-1-yl)-9H-purin-9-yl)acetamido)acetic acid]: the IC50 is 0.01 to 0.0977 µM.

In the case of `CCOC(=O)Cn1cnc2c(-n3cnc4ccccc43)nc(N3CCN(c4ccc(O)cc4)CC3)nc21` [Example 40, ethyl 2-(6-(1H-benzo[d]imidazol-1-yl)-2-(4-(4-hydroxyphenyl)piperazin-1-yl)-9H-purin-9-yl)acetate], the IC50 was 1 to 9.77 µM.

As to `CC(C)(C(=O)O)n1cnc2c(-n3ncc4ccccc43)nc(N3CCN(c4ccc(O)cn4)CC3)nc21` [Example 141, 2-(2-(4-(5-hydroxypyridin-2-yl)piperazin-1-yl)-6-(1H-indazol-1-yl)-9H-purin-9-yl)-2-methylpropanoic acid], the IC50 is 0.01 to 0.0977 µM.

For the compound `O=C(O)Cn1cnc2c(-n3ncc4ccccc43)nc(N3CCN(c4ccc(O)nc4)CC3)nc21` [Example 129, 2-(2-(4-(6-hydroxypyridin-3-yl)piperazin-1-yl)-6-(1H-indazol-1-yl)-9H-purin-9-yl)acetic acid], the IC50 was more than 10 µM.

Turning to `O=C(O)Cn1cnc2c(-n3ncc4ccccc43)nc(N3CC(O)(c4ccc(O)cc4)C3)nc21` [Example 216, 2-(2-(3-hydroxy-3-(4-hydroxyphenyl)azetidin-1-yl)-6-(1H-indazol-1-yl)-9H-purin-9-yl)acetic acid], the IC50 is 0.01 to 0.0977 µM.

As to `Nc1nc(N2CCN(c3ccc(O)cc3)CC2)nc2c1ncn2-c1ccccc1` [Example 66, 4-(4-(6-amino-9-phenyl-9H-purin-2-yl)piperazin-1-yl)phenol], the IC50 is 1 to 9.77 µM.

As for `CC(C)(C)OC(=O)Cn1cnc2c(-n3nnc4c(C(=O)O)cccc43)nc(N3CCN(c4ccc(O)cc4)CC3)nc21` [Example 100, 1-(9-(2-(tert-butoxy)-2-oxoethyl)-2-(4-(4-hydroxyphenyl)piperazin-1-yl)-9H-purin-6-yl)-1H-benzo[d][1,2,3]triazole-4-carboxylic acid], the IC50 was 0.01 to 0.0977 µM.

`Cc1nc(N2CCN(c3ccc(O)cc3)CC2)nc2c1ncn2C(CO)CO` [Example 110, 2-(2-(4-(4-hydroxyphenyl)piperazin-1-yl)-6-methyl-9H-purin-9-yl)propane-1,3-diol]: the IC50 was more than 10 µM.

Consider `COC(=O)c1ccc(-n2cnc3c(N)nc(N4CCN(c5ccc(O)cc5)CC4)nc32)cc1` [Example 101, methyl 4-(6-amino-2-(4-(4-hydroxyphenyl)piperazin-1-yl)-9H-purin-9-yl)benzoate], for which the IC50 is 0.1 to 0.977 µM.

`Cc1nc(N2CCC(O)(c3cccc(O)c3)CC2)nc2c1ncn2-c1ccncc1` [Example 206, 4-(3-hydroxyphenyl)-1-(6-methyl-9-(pyridin-4-yl)-9H-purin-2-yl)piperidin-4-ol]: the IC50 is 0.1 to 0.977 µM.

In the case of `NC(=O)c1ccc(N2CCN(c3nc(N)c4ncn(-c5ccncc5)c4n3)CC2)nc1` [Example 194, 6-(4-(6-amino-9-(pyridin-4-yl)-9H-purin-2-yl)piperazin-1-yl)nicotinamide], the IC50 is more than 10 µM.

As to `Nc1nc(N2CCN(c3ccc(C(=O)O)cn3)CC2)nc2c1ncn2-c1ccncc1` [Example 193, 6-(4-(6-amino-9-(pyridin-4-yl)-9H-purin-2-yl)piperazin-1-yl)nicotinic acid], the IC50 is more than 10 µM.

For the compound `Nc1nc(N2CCN(c3ccc(O)cc3)CC2)nc2c1ncn2C1CCCCO1` (stereo not shown) [Example 187, 4-(4-(6-amino-9-(tetrahydro-2H-pyran-2-yl)-9H-purin-2-yl)piperazin-1-yl)phenol], the IC50 was more than 10 µM.

As for `Nc1nc(N2CC(O)(c3ccns3)C2)nc2c1ncn2-c1ccncc1` [Example 213, 1-(6-amino-9-(pyridin-4-yl)-9H-purin-2-yl)-3-(isothiazol-5-yl)azetidin-3-ol], the IC50 is more than 10 µM.

Take `O=C(O)Cn1cnc2c(-n3nc(C(=O)O)c4ccccc43)nc(N3CCN(c4ccc(O)cc4)CC3)nc21` [Example 10, 1-(9-(carboxymethyl)-2-(4-(4-hydroxyphenyl)piperazin-1-yl)-9H-purin-6-yl)-1H-indazole-3-carboxylic acid]: the IC50 was 0.01 to 0.0977 µM.

For `CNC(=O)Cn1cnc2c(-n3cnc4ccccc43)nc(N3CCN(c4ccc(O)cc4)CC3)nc21` [Example 42, 2-(6-(1H-benzo[d]imidazol-1-yl)-2-(4-(4-hydroxyphenyl)piperazin-1-yl)-9H-purin-9-yl)-N-methylacetamide], the IC50 was 1 to 9.77 µM.

Take `Nc1nc(N2CCC(O)(C#CCO)CC2)nc2c1ncn2-c1ccncc1` [Example 198, 1-(6-amino-9-(pyridin-4-yl)-9H-purin-2-yl)-4-(3-hydroxyprop-1-yn-1-yl)piperidin-4-ol]: the IC50 is more than 10 µM.

For the compound `CC(C)S(=O)(=O)NC(=O)Cn1cnc2c(-n3ncc4ccccc43)nc(N3CCN(c4ccc(O)cc4)CC3)nc21` [Example 54, 2-(2-(4-(4-hydroxyphenyl)piperazin-1-yl)-6-(1H-indazol-1-yl)-9H-purin-9-yl)-N-(isopropylsulfonyl)acetamide], the IC50 is 0.1 to 0.977 µM.

Turning to `Nc1nc(N2CCN(c3ccc(O)cc3)CC2)nc2c1ncn2Cc1ccccc1` [Example 89, 4-(4-(6-amino-9-benzyl-9H-purin-2-yl)piperazin-1-yl)phenol], the IC50 was 1 to 9.77 µM.

`Nc1nc(N2CCN(c3ccc(O)cn3)CC2)nc2c1ccn2-c1ccncc1` [Example 230, 6-(4-(4-amino-7-(pyridin-4-yl)-7H-pyrrolo[2,3-d]pyrimidin-2-yl)piperazin-1-yl)pyridin-3-ol]: the IC50 is 1 to 9.77 µM.

As to `Nc1nc(N2CCN(c3ccc(CO)cc3)CC2)nc2c1ncn2-c1ccncc1` [Example 192, (4-(4-(6-amino-9-(pyridin-4-yl)-9H-purin-2-yl)piperazin-1-yl)phenyl)methanol], the IC50 was more than 10 µM.

As for `NC(=O)c1ccc(C2(O)CN(c3nc(N)c4ncn(-c5ccncc5)c4n3)C2)cc1` [Example 212, 4-(1-(6-amino-9-(pyridin-4-yl)-9H-purin-2-yl)-3-hydroxyazetidin-3-yl)benzamide], the IC50 is 1 to 9.77 µM.

`O=C(O)CCN(CCO)c1nc(N2CCN(c3ccc(O)cc3)CC2)nc2c1ncn2-c1ccncc1` [Example 168, 3-((2-hydroxyethyl)(2-(4-(4-hydroxyphenyl)piperazin-1-yl)-9-(pyridin-4-yl)-9H-purin-6-yl)amino)propanoic acid]: the IC50 is 0.01 to 0.0977 µM.
